In ChEMBL document CHEMBL4425089, “Chemical Space of DNA-Encoded Libraries” (J Med Chem, 2016):

Legend:
Protein phosphatase 1D = target: T1, Protein phosphatase 1D (Homo sapiens, UniProt O15297); assay: Inhibition of human Wip1 (2 to 420 residues) expressed in baculovirus-infected insect SF9 cells assessed as fluorescein diphosphate hydrolysis after 5 mins by fluorescence assay
T1 sequence (O15297 whole entry): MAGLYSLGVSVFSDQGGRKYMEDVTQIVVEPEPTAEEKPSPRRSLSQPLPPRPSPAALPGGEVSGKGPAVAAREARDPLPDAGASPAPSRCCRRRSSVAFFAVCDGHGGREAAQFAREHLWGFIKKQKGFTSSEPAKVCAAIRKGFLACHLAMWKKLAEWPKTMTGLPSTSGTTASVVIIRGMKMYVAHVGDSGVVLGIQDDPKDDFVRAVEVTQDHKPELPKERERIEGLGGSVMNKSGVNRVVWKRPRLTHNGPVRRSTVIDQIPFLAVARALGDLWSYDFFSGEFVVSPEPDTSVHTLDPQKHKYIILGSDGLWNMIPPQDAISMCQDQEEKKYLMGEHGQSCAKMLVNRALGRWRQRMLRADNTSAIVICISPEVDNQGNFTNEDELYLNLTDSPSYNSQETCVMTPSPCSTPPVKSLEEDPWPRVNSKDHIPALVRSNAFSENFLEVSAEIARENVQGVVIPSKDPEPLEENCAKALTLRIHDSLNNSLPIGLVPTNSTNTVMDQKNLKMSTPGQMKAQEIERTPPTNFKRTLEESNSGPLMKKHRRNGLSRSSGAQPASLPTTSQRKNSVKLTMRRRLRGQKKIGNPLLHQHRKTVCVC

MAP kinase p38 = MAP kinase p38 (Homo sapiens, UniProt O15264+Q15759+Q16539+P53778); assay: Inhibition of p38 MAPK (unknown origin); type: protein assay
[1] = target: Proto-oncogene tyrosine-protein kinase Src (Gallus gallus, UniProt P00523); assay: Inhibition of chicken Src kinase domain using AEEEIYGEFAKKK as substrate by continuous spectrophotometric assay
[2] = Displacement of [3H]-3-(1-(3-chloro-6-isopropyl-8-(trifluoromethyl)imidazo[1,2-a]pyridine-2-carbonyl)piperidin-4-yl)oxazolidin-2-one from HCV genotype 1b C-terminal His6-tagged NS4B (1 to 261 residues) expressed in baculovirus infected insect SF9 cells; set-up: species or system Hepatitis C virus subtype 1b
Interleukin-2 = Interleukin-2 (Homo sapiens, UniProt P60568); assay: Binding affinity to human IL-2 measured over 30 mins by fluorescence polarization assay
Chain of Interleukin-2 (P60568 whole entry): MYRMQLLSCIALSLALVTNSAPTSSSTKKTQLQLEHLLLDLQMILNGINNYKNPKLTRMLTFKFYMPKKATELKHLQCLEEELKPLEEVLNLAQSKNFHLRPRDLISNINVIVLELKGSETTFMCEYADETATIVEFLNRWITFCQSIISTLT

[3] = Binding affinity to HSP70 (unknown origin) by surface plasmon resonance method; set-up: species or system Homo sapiens
[4] = target: T2, 2',5'-phosphodiesterase 12 (Homo sapiens, UniProt Q6L8Q7); assay: Inhibition of human PDE12 (17 to 609 residues) expresssed in Escherichia coli BL21(DE3) cells using 2-5A as substrate assessed as AMP monomers and ATP formation after 30 mins by AMP-Glo assay
T2 sequence (Q6L8Q7 whole entry): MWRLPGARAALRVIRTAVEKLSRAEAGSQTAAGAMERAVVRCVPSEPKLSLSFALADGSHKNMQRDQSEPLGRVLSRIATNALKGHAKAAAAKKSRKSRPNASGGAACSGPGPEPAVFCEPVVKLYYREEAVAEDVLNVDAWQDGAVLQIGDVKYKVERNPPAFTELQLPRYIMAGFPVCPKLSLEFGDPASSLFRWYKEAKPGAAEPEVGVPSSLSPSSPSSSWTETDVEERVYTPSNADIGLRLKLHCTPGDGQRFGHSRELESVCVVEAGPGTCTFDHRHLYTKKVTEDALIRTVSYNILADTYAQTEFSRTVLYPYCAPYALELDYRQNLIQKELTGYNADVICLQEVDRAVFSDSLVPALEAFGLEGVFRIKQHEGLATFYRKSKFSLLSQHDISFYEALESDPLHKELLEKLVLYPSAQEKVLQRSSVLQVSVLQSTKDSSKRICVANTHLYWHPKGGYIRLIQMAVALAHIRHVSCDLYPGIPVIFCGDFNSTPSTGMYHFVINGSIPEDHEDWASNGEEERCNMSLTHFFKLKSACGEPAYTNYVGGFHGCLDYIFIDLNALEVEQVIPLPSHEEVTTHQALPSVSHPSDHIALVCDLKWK

[5] = Binding affinity to human plasma AGP by isothermal titration calorimetry; type: ADME

Cc1ncc(Cl)cc1NCc1ccc(C(=O)N[C@@H](CC2CCCC2)C(=O)NC2CC2)s1
IC50 (Protein phosphatase 1D): 6 nM

CNC(=O)C(Cc1ccc2c(c1)COC(C)(C)O2)Nc1nc(O)nc(-n2ccc3ccc(C(=O)N4CCCc5ccccc54)cc32)n1 (stereo not drawn)
IC50 (MAP kinase p38): 7 nM

O=C1/C=C\C(=O)N[C@@H](CC2CCCCC2)C(=O)N[C@@H](Cc2ccccc2)C(=O)N[C@@H](CCCNC(=O)c2cnccn2)C(=O)NCC[C@@H](C(=O)O)N1
IC50 [1]: 4 nM

O=C(c1ccc2[nH]ccc2c1)N1CCC2(CCCN(c3ncc(-c4ccccc4)c(-c4ccc(Cl)cc4)n3)C2)CC1
IC50 [2]: 42 nM

CCCC#Cc1ccc(C[C@@H](NC(=O)CCn2c(C)cc3ccccc32)C(=O)O)cc1
Kd (Interleukin-2): 4200 nM

NC(=O)C(CNC(=O)c1ccc2[nH]nc(Br)c2c1)NC(=O)c1cccc(NC(=O)CCC(=O)c2ccc(-c3ccccc3)cc2)c1 (stereo not drawn)
Kd [3]: 0.64 nM

CCn1cc(-c2nc3cc(Br)c(C(=O)N4CCO[C@@H](c5ccc(F)cc5)[C@@H]4CO)cc3n2C)c2ccc(C#N)cc21
IC50 [4]: 0.8 nM

Cc1ccc(S(=O)(=O)N(CC(=O)NCCOCCC(=O)NCCOCCC(=O)N[C@@H](CCCCNC(=O)/C=C/c2ccc(-c3ccccc3C(F)(F)F)o2)C(=O)O)c2ccccc2-c2ccccc2)cc1
Kd [5]: 5800 nM
